Read-outs that look alike come from different tables or passages of the source.

In experiment [1] the target is T1, FABP3 (Homo sapiens, UniProt P05413). Conditions: read-out: FABP3 Ki; cited from earlier work.
Experiment [2] addresses T2, FABP7 (Homo sapiens, UniProt O15540). Conditions: read-out: FABP7 Ki; cited from earlier work.
The target in experiment [3] is T2, FABP7. Put plainly: Fluorescence displacement binding assay. Conditions: for Ki: read-out: FABP7 Ki, average ± S.E. of at least three independent experiments.
Experiment [4] concerns the target T1, FABP3. Put plainly: Fluorescence displacement binding assay. Conditions: read-out: FABP3 Ki; average ± S.E. of at least three independent experiments.
Experiment [5] concerns CFA-induced thermal hyperalgesia. Put plainly: CFA-induced thermal hyperalgesia. Format: in vivo. Conditions: 20 mg/kg, i.p., mice, 90 min after administration, n = 6.
A further experiment has as its target FABP5 (Homo sapiens, UniProt Q01469). Put plainly: Fluorescence displacement binding assay. Conditions: read-out: FABP5 Ki; average ± S.E. of at least three independent experiments.

T1 sequence (P05413 whole entry): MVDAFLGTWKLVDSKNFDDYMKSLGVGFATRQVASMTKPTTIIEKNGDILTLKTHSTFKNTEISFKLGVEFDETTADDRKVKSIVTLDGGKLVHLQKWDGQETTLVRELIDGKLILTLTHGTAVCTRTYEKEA
T2 sequence (O15540 whole entry): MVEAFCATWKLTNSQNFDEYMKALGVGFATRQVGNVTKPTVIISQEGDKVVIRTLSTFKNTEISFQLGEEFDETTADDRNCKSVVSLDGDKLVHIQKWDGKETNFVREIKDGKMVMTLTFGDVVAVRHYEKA
Chain of FABP5 (Q01469 whole entry): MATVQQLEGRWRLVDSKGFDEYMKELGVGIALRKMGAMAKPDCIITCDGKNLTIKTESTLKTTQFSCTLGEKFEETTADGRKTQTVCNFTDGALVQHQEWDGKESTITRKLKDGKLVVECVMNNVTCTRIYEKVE

The term Ki denotes a dissociation constant, usually derived from enzyme kinetics or from competition with a known ligand. On to `O=C(O)C1C(c2ccccc2)C(C(=O)Oc2cccc3ccccc23)C1c1ccccc1` (stereo not drawn) [L1, α-truxillic acid 1‑naphthyl ester], for which the Ki on FABP3 [1] is 2.7 ± 0.42 µM; at FABP7 [2], 0.45 ± 0.07 µM.
With `COc1ccccc1C1[C@H](C(=O)O)[C@H](c2ccccc2OC)[C@H]1C(=O)Oc1cccc2ccccc12` (some centres unmarked) [L2], the Ki was 0.69 ± 0.17 µM at FABP3 [1] and 0.67 ± 0.04 µM on FABP7 [2].
As to `COc1ccccc1C1[C@H](C(=O)O)[C@H](c2ccccc2OC)[C@H]1C(=O)OCC1c2ccccc2-c2ccccc21` (some centres unmarked) [L3], the Ki is 25.3 ± 4.57 µM at FABP3 [1] and 14.3 ± 0.41 µM at FABP7 [2].
With `COc1ccccc1C1C(C(=O)O)C(c2ccccc2OC)C1C(=O)OC1Cc2ccccc2C1` (stereo not drawn) [α-16, α-3-(2,3-Dihydro-1H-inden-2-yloxycarbonyl)-2,4-bis(2-methoxyphenyl)cyclobutane-1-carboxylic acid], the Ki at FABP7 [3] stood at 21.8 ± 4.22 µM; at FABP3 [4] it was 53.8 ± 7.28 µM. The “effect on thermal hyperalgesia” value in experiment [5] is given as “full reversal of hyperalgesia”.
On to `O=C(O)C1C(c2ccccc2)C(C(=O)OCc2cccc3ccccc23)C1c1ccccc1` (centres unmarked) [ε-23, ε-3-(Naphthalen-1-ylmethoxycarbonyl)-2,4-diphenylcyclobutane-1-carboxylic acid], for which the values for the Ki at FABP7 [3], on FABP3 [4] and at FABP5 were 0.86 ± 0.04 µM, 7.42 ± 1.38 µM and 5.08 ± 0.62 µM, respectively.
As to `O=C(O)C1C(c2ccccc2)C(C(=O)OCc2ccccc2-c2ccccc2)C1c1ccccc1` (centres unmarked) [ε-201, ε-3-(1,1′-Biphenyl-2-ylmethoxycarbonyl)-2,4-diphenylcyclobutane-1-carboxylic acid], the “FABP7/3 SI (selectivity index)” value on FABP7 [3] (FABP7 over FABP3, from Ki values) is 5.0. Moreover, the “FABP7/5 SI (selectivity index)” value on FABP7 [3] (FABP7 over FABP5, from Ki values) worked out at 2.4. The Ki at FABP7 [3] amounted to 0.68 ± 0.16 µM; on FABP3 [4], 3.4 ± 0.54 µM; on FABP5, 1.65 ± 0.22 µM.
Regarding `O=C(O)C1C(c2ccccc2)C(C(=O)Oc2cccc(-c3ccc4c(c3)OCCO4)c2)C1c1ccccc1` (centres unmarked) [ε-203, ε-3-(3-(2,3-Dihydrobenzo[b][1,4]dioxin-6-yl)phenoxycarbonyl)-2,4-diphenyl-cyclobutane-1-carboxylic acid], the Ki at FABP7 [3] was determined as 1.49 ± 0.15 µM; at FABP3 [4], 7.84 ± 0.7 µM; on FABP5 it was 3.15 ± 0.28 µM.

Source of the values: article PMC11323223 (Bioorganic chemistry, 2022).
